Assay results as given in PMC10176470, “Engaging a Non-catalytic Cysteine Residue Drives Potent and Selective Inhibition of Caspase-6” (Journal of the American Chemical Society, 2023).
Where two headings read alike, the source gives them in different places.

Experiments:
Assay type in all cases: cell-based
[1] = target: proteins of HEK293T cells transiently overexpressing caspase-6 (Homo sapiens, UniProt O00541); details: protein PES1 (O00541); exp_ref Probe; analysis C6
[2] = target: proteins of HEK293T cells transiently overexpressing caspase-6 (Homo sapiens, UniProt O95373); details: Probe; protein IPO7 O95373
[3] = target: T1, proteins of HEK293T cells transiently overexpressing caspase-6 (Homo sapiens, UniProt P09936); details: protein UCHL1 (P09936)
T1 sequence (P09936 1-223): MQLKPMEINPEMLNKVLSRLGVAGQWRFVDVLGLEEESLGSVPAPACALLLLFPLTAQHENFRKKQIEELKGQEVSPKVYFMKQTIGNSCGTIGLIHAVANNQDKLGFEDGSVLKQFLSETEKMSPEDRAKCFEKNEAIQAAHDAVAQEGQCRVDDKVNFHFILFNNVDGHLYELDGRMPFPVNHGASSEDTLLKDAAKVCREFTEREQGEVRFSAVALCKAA

[4] = target: proteins of HEK293T cells transiently overexpressing caspase-6 (Homo sapiens, UniProt P20700); details: exp_ref Probe; protein LMNB1 (P20700); analysis C6
[5] = target: proteins of HEK293T cells transiently overexpressing caspase-6 (Homo sapiens, UniProt P21333)
[6] = target: proteins of HEK293T cells transiently overexpressing caspase-6 (Homo sapiens, UniProt P24752); details: Probe; protein ACAT1 P24752
[7] = target: T2, proteins of HEK293T cells transiently overexpressing caspase-6 (Homo sapiens, UniProt P30048)
T2 sequence (P30048 62-256): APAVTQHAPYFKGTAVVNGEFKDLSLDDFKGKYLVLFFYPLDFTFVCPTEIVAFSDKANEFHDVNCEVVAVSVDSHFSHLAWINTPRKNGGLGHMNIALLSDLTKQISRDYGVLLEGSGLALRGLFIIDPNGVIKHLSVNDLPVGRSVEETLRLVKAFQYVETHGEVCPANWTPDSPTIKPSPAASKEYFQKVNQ

[8] = target: proteins of HEK293T cells transiently overexpressing caspase-6 (Homo sapiens, UniProt P30050); details: protein RPL12 (P30050)
[9] = target: proteins of HEK293T cells transiently overexpressing caspase-6 (Homo sapiens, UniProt P38606); details: exp_ref Probe; protein ATP6V1A (P38606); analysis C6
[10] = target: proteins of HEK293T cells transiently overexpressing caspase-6 (Homo sapiens, UniProt P49023); details: Probe; protein PXN P49023
[11] = target: proteins of HEK293T cells transiently overexpressing caspase-6 (Homo sapiens, UniProt P52597); details: Probe; protein HNRNPF P52597
[12] = target: proteins of HEK293T cells transiently overexpressing caspase-6 (Homo sapiens, UniProt P84103); details: Probe; protein SRSF3 P84103
[13] = target: T3, proteins of HEK293T cells transiently overexpressing caspase-6 (Homo sapiens, UniProt Q00325); details: protein SLC25A3 (Q00325)
T3 sequence (Q00325 50-362): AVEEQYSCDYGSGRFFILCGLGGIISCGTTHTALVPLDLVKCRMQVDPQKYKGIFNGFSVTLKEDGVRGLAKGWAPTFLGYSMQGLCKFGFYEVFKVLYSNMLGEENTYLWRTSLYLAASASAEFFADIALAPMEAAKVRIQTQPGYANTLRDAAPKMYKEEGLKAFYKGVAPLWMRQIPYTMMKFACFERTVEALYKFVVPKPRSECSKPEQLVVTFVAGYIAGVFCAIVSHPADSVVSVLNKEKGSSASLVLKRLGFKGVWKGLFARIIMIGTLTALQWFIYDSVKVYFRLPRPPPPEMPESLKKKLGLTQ

[14] = target: proteins of HEK293T cells transiently overexpressing caspase-6 (Homo sapiens, UniProt Q00765); details: protein REEP5 (Q00765)
[15] = target: proteins of HEK293T cells transiently overexpressing caspase-6 (Homo sapiens, UniProt Q13347); details: protein EIF3I (Q13347); exp_ref Probe; analysis C6
[16] = target: proteins of HEK293T cells transiently overexpressing caspase-6 (Homo sapiens, UniProt Q14152); details: exp_ref Probe; protein EIF3A (Q14152); analysis C6
[17] = target: proteins of HEK293T cells transiently overexpressing caspase-6 (Homo sapiens, UniProt Q15233); details: exp_ref Probe; protein NONO (Q15233); analysis C6
[18] = target: proteins of HEK293T cells transiently overexpressing caspase-6 (Homo sapiens, UniProt Q9BT22); details: exp_ref Probe; protein ALG1 (Q9BT22); analysis C6
[19] = target: proteins of HEK293T cells transiently overexpressing caspase-6 (Homo sapiens, UniProt Q9BZZ5); details: exp_ref Probe; protein API5 (Q9BZZ5); analysis C6
[20] = target: proteins of HEK293T cells transiently overexpressing caspase-6 (Homo sapiens, UniProt Q9P2E9); details: exp_ref Probe; protein RRBP1 (Q9P2E9); analysis C6

Sequence of proteins of HEK293T cells transiently overexpressing caspase-6 (Homo sapiens, UniProt P21333) (P21333 whole entry): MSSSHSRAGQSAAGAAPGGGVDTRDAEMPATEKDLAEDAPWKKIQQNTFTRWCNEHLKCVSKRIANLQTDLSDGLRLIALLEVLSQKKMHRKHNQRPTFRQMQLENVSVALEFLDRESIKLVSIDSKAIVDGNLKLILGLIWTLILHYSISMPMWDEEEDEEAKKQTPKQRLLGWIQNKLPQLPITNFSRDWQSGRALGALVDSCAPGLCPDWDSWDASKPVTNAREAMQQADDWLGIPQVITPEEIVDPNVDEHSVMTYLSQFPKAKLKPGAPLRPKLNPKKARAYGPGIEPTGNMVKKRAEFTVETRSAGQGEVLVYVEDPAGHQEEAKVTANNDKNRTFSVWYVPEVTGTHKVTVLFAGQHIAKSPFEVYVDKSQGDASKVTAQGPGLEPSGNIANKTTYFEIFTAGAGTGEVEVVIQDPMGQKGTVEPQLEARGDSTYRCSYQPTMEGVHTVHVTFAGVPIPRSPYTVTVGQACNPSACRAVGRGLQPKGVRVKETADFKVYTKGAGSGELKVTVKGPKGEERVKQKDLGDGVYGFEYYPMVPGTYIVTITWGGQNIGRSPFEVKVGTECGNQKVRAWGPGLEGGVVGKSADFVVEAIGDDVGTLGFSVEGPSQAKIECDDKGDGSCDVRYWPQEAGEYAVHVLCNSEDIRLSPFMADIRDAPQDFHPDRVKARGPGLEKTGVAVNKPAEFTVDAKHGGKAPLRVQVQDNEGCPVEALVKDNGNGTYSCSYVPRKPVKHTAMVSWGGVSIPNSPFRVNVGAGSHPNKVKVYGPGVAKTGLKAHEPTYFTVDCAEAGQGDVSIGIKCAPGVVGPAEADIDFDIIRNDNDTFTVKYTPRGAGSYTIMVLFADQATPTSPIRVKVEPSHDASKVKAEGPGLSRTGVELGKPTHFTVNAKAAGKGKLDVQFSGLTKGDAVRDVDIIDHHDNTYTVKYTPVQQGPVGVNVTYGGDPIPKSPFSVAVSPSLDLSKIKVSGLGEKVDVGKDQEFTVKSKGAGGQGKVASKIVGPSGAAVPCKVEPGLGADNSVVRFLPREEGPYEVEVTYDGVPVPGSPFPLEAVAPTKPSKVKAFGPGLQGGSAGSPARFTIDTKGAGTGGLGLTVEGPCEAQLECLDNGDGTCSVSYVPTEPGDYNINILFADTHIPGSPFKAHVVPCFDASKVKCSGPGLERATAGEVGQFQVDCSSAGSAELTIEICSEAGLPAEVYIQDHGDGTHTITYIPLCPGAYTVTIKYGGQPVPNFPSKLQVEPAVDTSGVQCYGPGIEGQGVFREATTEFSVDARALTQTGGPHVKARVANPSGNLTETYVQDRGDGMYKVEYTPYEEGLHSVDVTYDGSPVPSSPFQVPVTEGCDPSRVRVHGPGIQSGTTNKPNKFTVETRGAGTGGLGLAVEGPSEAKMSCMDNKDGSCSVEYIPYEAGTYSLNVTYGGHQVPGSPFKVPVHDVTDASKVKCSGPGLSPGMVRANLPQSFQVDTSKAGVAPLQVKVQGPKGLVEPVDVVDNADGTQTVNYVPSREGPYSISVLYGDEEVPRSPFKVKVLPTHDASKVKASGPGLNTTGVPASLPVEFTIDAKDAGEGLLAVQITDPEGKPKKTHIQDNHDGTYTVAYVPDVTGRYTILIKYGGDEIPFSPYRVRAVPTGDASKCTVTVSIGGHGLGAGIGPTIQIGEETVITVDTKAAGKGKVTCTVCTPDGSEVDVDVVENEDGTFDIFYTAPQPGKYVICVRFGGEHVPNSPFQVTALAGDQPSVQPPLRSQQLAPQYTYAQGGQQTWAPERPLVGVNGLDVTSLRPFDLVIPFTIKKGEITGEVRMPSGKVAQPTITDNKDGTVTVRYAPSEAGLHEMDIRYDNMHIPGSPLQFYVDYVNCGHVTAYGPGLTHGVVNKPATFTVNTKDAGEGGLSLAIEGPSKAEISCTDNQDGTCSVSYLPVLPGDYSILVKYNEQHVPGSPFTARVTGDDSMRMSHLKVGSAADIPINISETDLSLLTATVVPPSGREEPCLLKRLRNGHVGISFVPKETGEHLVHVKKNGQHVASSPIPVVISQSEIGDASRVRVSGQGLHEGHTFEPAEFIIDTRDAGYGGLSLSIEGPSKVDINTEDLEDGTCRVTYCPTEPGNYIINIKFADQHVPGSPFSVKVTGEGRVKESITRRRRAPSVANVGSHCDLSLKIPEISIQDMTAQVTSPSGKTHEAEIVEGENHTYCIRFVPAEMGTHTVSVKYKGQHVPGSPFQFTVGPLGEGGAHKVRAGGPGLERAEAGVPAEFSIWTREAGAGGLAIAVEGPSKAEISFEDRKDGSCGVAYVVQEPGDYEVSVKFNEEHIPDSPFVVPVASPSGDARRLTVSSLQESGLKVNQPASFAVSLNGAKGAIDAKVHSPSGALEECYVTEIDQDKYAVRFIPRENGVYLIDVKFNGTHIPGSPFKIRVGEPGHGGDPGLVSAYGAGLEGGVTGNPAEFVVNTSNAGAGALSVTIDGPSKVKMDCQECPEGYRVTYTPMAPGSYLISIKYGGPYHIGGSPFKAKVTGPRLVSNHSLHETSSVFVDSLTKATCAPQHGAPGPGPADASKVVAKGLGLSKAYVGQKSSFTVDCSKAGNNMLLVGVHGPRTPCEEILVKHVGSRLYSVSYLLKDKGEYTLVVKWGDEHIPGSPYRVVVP
Sequence of proteins of HEK293T cells transiently overexpressing caspase-6 (Homo sapiens, UniProt Q00765) (Q00765 whole entry): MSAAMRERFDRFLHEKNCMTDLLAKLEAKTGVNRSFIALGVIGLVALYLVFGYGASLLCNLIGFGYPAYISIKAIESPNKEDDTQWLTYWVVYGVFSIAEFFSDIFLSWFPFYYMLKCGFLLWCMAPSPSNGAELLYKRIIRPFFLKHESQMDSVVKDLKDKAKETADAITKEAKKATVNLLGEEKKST
Sequence of proteins of HEK293T cells transiently overexpressing caspase-6 (Homo sapiens, UniProt P38606) (P38606 whole entry): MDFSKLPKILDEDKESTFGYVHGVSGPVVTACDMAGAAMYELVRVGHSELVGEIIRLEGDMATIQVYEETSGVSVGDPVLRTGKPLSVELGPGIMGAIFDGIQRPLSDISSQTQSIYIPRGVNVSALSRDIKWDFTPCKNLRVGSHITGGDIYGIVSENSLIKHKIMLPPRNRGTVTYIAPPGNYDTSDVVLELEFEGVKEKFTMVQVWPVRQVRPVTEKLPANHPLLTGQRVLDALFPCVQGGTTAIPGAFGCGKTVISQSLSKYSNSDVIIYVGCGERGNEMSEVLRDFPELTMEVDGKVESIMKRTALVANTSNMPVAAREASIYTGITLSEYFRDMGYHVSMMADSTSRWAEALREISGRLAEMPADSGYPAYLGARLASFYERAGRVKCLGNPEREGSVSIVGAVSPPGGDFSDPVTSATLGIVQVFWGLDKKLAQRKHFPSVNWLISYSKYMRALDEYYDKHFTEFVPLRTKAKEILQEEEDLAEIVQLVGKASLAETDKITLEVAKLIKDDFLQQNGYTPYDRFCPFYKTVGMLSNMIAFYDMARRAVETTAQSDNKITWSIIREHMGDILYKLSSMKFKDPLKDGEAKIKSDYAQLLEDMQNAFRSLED
Sequence of proteins of HEK293T cells transiently overexpressing caspase-6 (Homo sapiens, UniProt Q13347) (Q13347 whole entry): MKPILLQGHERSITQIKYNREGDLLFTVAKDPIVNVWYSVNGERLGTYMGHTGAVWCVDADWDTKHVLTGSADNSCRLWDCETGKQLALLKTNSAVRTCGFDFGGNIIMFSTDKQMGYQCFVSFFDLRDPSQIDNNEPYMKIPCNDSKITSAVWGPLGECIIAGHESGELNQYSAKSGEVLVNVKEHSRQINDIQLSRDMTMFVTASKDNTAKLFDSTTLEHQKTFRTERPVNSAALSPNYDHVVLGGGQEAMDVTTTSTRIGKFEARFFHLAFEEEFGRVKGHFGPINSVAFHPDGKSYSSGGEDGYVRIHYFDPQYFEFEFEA
Sequence of proteins of HEK293T cells transiently overexpressing caspase-6 (Homo sapiens, UniProt P49023) (P49023 whole entry): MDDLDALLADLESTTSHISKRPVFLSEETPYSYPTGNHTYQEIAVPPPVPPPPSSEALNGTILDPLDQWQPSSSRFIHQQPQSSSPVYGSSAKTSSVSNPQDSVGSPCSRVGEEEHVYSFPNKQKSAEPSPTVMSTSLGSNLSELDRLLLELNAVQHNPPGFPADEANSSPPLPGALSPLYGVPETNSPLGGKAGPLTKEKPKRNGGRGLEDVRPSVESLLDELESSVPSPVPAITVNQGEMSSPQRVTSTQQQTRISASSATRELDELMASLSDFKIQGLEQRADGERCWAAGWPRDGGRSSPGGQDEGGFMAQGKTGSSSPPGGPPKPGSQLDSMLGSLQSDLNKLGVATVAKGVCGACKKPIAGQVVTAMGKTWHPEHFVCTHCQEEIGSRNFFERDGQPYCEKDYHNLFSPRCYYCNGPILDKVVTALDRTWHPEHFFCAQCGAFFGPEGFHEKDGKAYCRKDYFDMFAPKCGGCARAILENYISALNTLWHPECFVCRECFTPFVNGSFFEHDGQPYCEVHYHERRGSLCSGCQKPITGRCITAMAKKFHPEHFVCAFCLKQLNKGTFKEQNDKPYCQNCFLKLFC
Sequence of proteins of HEK293T cells transiently overexpressing caspase-6 (Homo sapiens, UniProt P20700) (P20700 whole entry): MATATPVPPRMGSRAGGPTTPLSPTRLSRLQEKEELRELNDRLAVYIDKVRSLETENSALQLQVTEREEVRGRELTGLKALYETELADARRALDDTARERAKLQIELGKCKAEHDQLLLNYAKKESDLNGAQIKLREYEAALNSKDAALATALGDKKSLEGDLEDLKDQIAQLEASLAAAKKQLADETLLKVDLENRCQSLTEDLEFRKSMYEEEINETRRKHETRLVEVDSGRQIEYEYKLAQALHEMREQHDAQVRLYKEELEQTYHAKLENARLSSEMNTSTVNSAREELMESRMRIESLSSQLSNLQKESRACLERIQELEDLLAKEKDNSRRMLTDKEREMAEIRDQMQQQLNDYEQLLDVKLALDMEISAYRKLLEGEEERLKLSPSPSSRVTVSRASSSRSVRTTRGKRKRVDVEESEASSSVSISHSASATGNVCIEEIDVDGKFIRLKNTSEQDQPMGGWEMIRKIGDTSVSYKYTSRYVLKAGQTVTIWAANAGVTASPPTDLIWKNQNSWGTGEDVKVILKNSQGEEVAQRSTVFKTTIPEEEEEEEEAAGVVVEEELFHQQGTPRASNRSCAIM

Structure (SMILES): C#CCOc1ccc([C@@H]2C[C@@H](C(=O)Nc3ccc(OC(F)(F)F)cc3)CN(S(=O)(=O)C=C)C2)cc1 (relative stereo) [13-t]
- enrich.exp.med [1]: 1.47
- enrich.exp.med [2]: -0.5106
- enrich.exp.med.lin [3]: 3.454
- enrich.exp.med.log2 [3]: 1.788
- enrich.exp.med ([3]; exp_ref Probe, analysis C6): 1.788
- enrich.exp.med [4]: -0.2652
- enrich.exp.med ([5]; Probe, protein FLNA P21333): -0.9107
- enrich.exp.med.lin ([5]; protein FLNA (P21333)): 0.5319
- enrich.exp.med.log2 ([5]; protein FLNA (P21333)): -0.9107
- enrich.exp.med [6]: -1.066
- enrich.exp.med ([7]; Probe, protein PRDX3 P30048): -1.058
- enrich.exp.med.lin ([7]; protein PRDX3 (P30048)): 0.4804
- enrich.exp.med.log2 ([7]; protein PRDX3 (P30048)): -1.058
- enrich.exp.med ([8]; exp_ref Probe, analysis C6): 0.2557
- enrich.exp.med.lin [8]: 1.194
- enrich.exp.med.log2 [8]: 0.2557
- enrich.exp.med [9]: 0.7344
- enrich.exp.med [10]: -1.7768
- enrich.exp.med [11]: -0.4498
- enrich.exp.med [12]: -0.7077
- enrich.exp.med ([13]; exp_ref Probe, analysis C6): 0.6055
- enrich.exp.med.lin [13]: 1.522
- enrich.exp.med.log2 [13]: 0.6055
- enrich.exp.med.lin [14]: 12.9915
- enrich.exp.med.log2 [14]: 3.6995
- enrich.exp.med.lin ([14]; Expt Probe, analysis C6): 12.9915
- enrich.exp.med.log2 ([14]; Expt Probe, analysis C6): 3.6995
- enrich.exp.med ([14]; exp_ref Probe, analysis C6): 3.6995
- enrich.exp.med [15]: 1.576
- enrich.exp.med [16]: 0.8938
- enrich.exp.med [17]: 0.7906
- enrich.exp.med [18]: 0.4836
- enrich.exp.med [19]: 0.9484
- enrich.exp.med [20]: 0.4694
